From PubChem BioAssay (NCI)
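Protocol summary: plate cells (96-well), add compound at 5 concentrations, incubate 48 h, interpolate endpoints linearly. The concentration for full growth arrest is given as TGI.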

What was measured:
Test in all cases: DTP human tumour cell line panel, 48 h
[1] = system: 786-0 renal
[2] = system: A498 renal
[3] = system: A549 NSCLC
[4] = system: ACHN renal
[5] = system: BT-549 breast
[6] = system: CAKI-1 renal
[7] = system: CCRF-CEM leukemia
[8] = system: COLO 205 colon
[9] = system: DU-145 prostate
[10] = system: EKVX NSCLC
[11] = system: HCC-2998 colon
[12] = system: HCT-116 colon
[13] = system: HCT-15 colon
[14] = system: HL-60(TB) leukemia
[15] = system: HOP-92 NSCLC
[16] = system: HS 578T breast
[17] = system: HT29 colon
[18] = system: IGROV1 ovarian
[19] = system: K-562 leukemia
[20] = system: KM12 colon
[21] = system: M14 melanoma
[22] = system: MALME-3M melanoma
[23] = system: MCF7 breast
[24] = system: MDA-MB-231 breast
[25] = system: MDA-MB-435
[26] = system: MDA-N
[27] = system: MOLT-4 leukemia
[28] = system: NCI-H226 lung
[29] = system: NCI-H23 lung
[30] = system: NCI-H460 lung
[31] = system: NCI-H522 lung
[32] = system: NCI/ADR-RES ovarian
[33] = system: OVCAR-3 ovarian
[34] = system: OVCAR-4 ovarian
[35] = system: OVCAR-5 ovarian
[36] = system: OVCAR-8 ovarian
[37] = system: PC-3 prostate
[38] = system: RPMI-8226 leukemia
[39] = system: RXF 393 renal
[40] = system: SF-268 CNS
[41] = system: SF-295 CNS
[42] = system: SF-539 CNS
[43] = system: SK-MEL-2 melanoma
[44] = system: SK-MEL-28 melanoma
[45] = system: SK-MEL-5 melanoma
[46] = system: SK-OV-3 ovarian
[47] = system: SN12C renal
[48] = system: SNB-19 CNS
[49] = system: SNB-75 CNS
[50] = system: SR leukemia
[51] = system: SW-620 colon
[52] = system: T-47D breast
[53] = system: TK-10 renal
[54] = system: U251 CNS
[55] = system: UACC-257 melanoma
[56] = system: UACC-62 melanoma
[57] = system: UO-31 renal
[58] = system: HOP-62 NSCLC
[59] = system: LOX IMVI melanoma

Compound: Brc1c(C#CCC(c2ccccc2)(c2ccccc2)c2ccccc2)ccc(C#CCC(c2ccccc2)(c2ccccc2)c2ccccc2)c1Br
- TGI [1]: > 100 µM
- TGI [2]: > 100 µM
- TGI [3]: > 100 µM
- TGI [4]: > 100 µM
- TGI [5]: > 100 µM
- TGI [6]: > 100 µM
- TGI [7]: > 100 µM
- TGI [8]: > 100 µM
- TGI [9]: > 100 µM
- TGI [10]: > 100 µM
- TGI [11]: > 100 µM
- TGI [12]: > 100 µM
- TGI [13]: > 100 µM
- TGI [14]: > 100 µM
- TGI [15]: > 100 µM
- TGI [16]: > 100 µM
- TGI [17]: > 100 µM
- TGI [18]: > 100 µM
- TGI [19]: > 100 µM
- TGI [20]: > 100 µM
- TGI [21]: > 100 µM
- TGI [22]: > 100 µM
- TGI [23]: > 100 µM
- TGI [24]: > 100 µM
- TGI [25]: > 100 µM
- TGI [26]: > 100 µM
- TGI [27]: > 100 µM
- TGI [28]: > 100 µM
- TGI [29]: > 100 µM
- TGI [30]: > 100 µM
- TGI [31]: > 100 µM
- TGI [32]: > 100 µM
- TGI [33]: > 100 µM
- TGI [34]: > 100 µM
- TGI [35]: > 100 µM
- TGI [36]: > 100 µM
- TGI [37]: > 100 µM
- TGI [38]: > 100 µM
- TGI [39]: > 100 µM
- TGI [40]: > 100 µM
- TGI [41]: > 100 µM
- TGI [42]: > 100 µM
- TGI [43]: > 100 µM
- TGI [44]: > 100 µM
- TGI [45]: > 100 µM
- TGI [46]: > 100 µM
- TGI [47]: > 100 µM
- TGI [48]: > 100 µM
- TGI [49]: > 100 µM
- TGI [50]: > 100 µM
- TGI [51]: > 100 µM
- TGI [52]: > 100 µM
- TGI [53]: > 100 µM
- TGI [54]: > 100 µM
- TGI [55]: > 100 µM
- TGI [56]: > 100 µM
- TGI [57]: > 100 µM

Compound: CCN(CC)CCCn1c(=O)c2ccccc2n2c3c(=O)n(C)c(=O)n(C)c3nc12
- TGI [1]: 18.6 µM
- TGI [3]: 10.4 µM
- TGI [4]: 4.17 µM
- TGI [5]: 17.6 µM
- TGI [6]: 15.1 µM
- TGI [7]: 35 µM
- TGI [8]: 20.6 µM
- TGI [9]: 10.6 µM
- TGI [10]: 36.6 µM
- TGI [11]: 22 µM
- TGI [12]: 21.6 µM
- TGI [13]: 25.4 µM
- TGI [14]: 9.08 µM
- TGI [58]: 15.1 µM
- TGI [15]: 16.4 µM
- TGI [16]: 45.6 µM
- TGI [17]: 24 µM
- TGI [18]: 26.2 µM
- TGI [19]: 33.6 µM
- TGI [20]: 19.8 µM
- TGI [59]: 15.4 µM
- TGI [21]: 25.1 µM
- TGI [22]: 21.4 µM
- TGI [23]: > 100 µM
- TGI [24]: 30.1 µM
- TGI [25]: 27.5 µM
- TGI [26]: 28 µM
- TGI [27]: 8.92 µM
- TGI [28]: 14.3 µM
- TGI [29]: 21.2 µM
- TGI [30]: 4.06 µM
- TGI [31]: 21.9 µM
- TGI [32]: 47.2 µM
- TGI [33]: 33.6 µM
- TGI [34]: 22.6 µM
- TGI [35]: 32.9 µM
- TGI [36]: 23.4 µM
- TGI [37]: 23 µM
- TGI [38]: 49.7 µM
- TGI [39]: 45.8 µM
- TGI [40]: 23 µM
- TGI [41]: 15.6 µM
- TGI [42]: 22 µM
- TGI [43]: 35 µM
- TGI [44]: 30.2 µM
- TGI [45]: 15 µM
- TGI [46]: 14.7 µM
- TGI [47]: 18.6 µM
- TGI [48]: 35.3 µM
- TGI [49]: 18.6 µM
- TGI [50]: 3.37 µM
- TGI [51]: 29.1 µM
- TGI [52]: 49.8 µM
- TGI [53]: 38.9 µM
- TGI [54]: 23.3 µM
- TGI [55]: 26.2 µM
- TGI [56]: 24.1 µM
- TGI [57]: 17.7 µM

Compound: N#CC(C#N)=C(N)/C(C#N)=C/c1ccc2ccccc2n1
- TGI [1]: 34.2 µM
- TGI [2]: > 100 µM
- TGI [3]: > 100 µM
- TGI [4]: 39.6 µM
- TGI [5]: 91.1 µM
- TGI [6]: 65.1 µM
- TGI [7]: > 100 µM
- TGI [9]: > 100 µM
- TGI [10]: > 100 µM
- TGI [11]: > 100 µM
- TGI [12]: 28.4 µM
- TGI [13]: 80.1 µM
- TGI [58]: 33 µM
- TGI [15]: > 100 µM
- TGI [16]: 65 µM
- TGI [17]: 35.9 µM
- TGI [18]: 38.2 µM
- TGI [19]: > 100 µM
- TGI [20]: 41.5 µM
- TGI [59]: 46 µM
- TGI [21]: > 100 µM
- TGI [22]: > 100 µM
- TGI [23]: > 100 µM
- TGI [24]: 72.5 µM
- TGI [25]: > 100 µM
- TGI [26]: > 100 µM
- TGI [27]: 97.9 µM
- TGI [28]: > 100 µM
- TGI [29]: > 100 µM
- TGI [30]: > 100 µM
- TGI [32]: > 100 µM
- TGI [33]: 33.4 µM
- TGI [34]: > 100 µM
- TGI [35]: > 100 µM
- TGI [36]: > 100 µM
- TGI [37]: 79.4 µM
- TGI [38]: > 100 µM
- TGI [39]: 42.1 µM
- TGI [40]: > 100 µM
- TGI [41]: 59.6 µM
- TGI [43]: > 100 µM
- TGI [44]: 43.2 µM
- TGI [45]: 51 µM
- TGI [46]: > 100 µM
- TGI [47]: > 100 µM
- TGI [48]: 77.7 µM
- TGI [49]: > 100 µM
- TGI [52]: > 100 µM
- TGI [53]: > 100 µM
- TGI [55]: > 100 µM
- TGI [56]: 45.9 µM
- TGI [57]: 30.9 µM

Compound: O=C(CCCNc1nc(-c2ccccc2)cs1)c1cccs1
- TGI [1]: > 100 µM
- TGI [3]: > 100 µM
- TGI [4]: > 100 µM
- TGI [5]: > 100 µM
- TGI [6]: > 100 µM
- TGI [8]: > 100 µM
- TGI [10]: > 100 µM
- TGI [11]: > 100 µM
- TGI [12]: > 100 µM
- TGI [13]: > 100 µM
- TGI [58]: > 100 µM
- TGI [16]: > 100 µM
- TGI [17]: > 100 µM
- TGI [18]: > 100 µM
- TGI [19]: > 100 µM
- TGI [20]: > 100 µM
- TGI [59]: > 100 µM
- TGI [21]: > 100 µM
- TGI [22]: > 100 µM
- TGI [23]: > 100 µM
- TGI [24]: > 100 µM
- TGI [25]: > 100 µM
- TGI [26]: > 100 µM
- TGI [27]: > 100 µM
- TGI [28]: > 100 µM
- TGI [29]: > 100 µM
- TGI [30]: > 100 µM
- TGI [31]: > 100 µM
- TGI [32]: > 100 µM
- TGI [33]: > 100 µM
- TGI [34]: > 100 µM
- TGI [35]: > 100 µM
- TGI [36]: > 100 µM
- TGI [37]: > 100 µM
- TGI [38]: > 100 µM
- TGI [40]: > 100 µM
- TGI [41]: > 100 µM
- TGI [42]: > 100 µM
- TGI [43]: > 100 µM
- TGI [44]: > 100 µM
- TGI [45]: > 100 µM
- TGI [46]: > 100 µM
- TGI [47]: > 100 µM
- TGI [48]: > 100 µM
- TGI [49]: > 100 µM
- TGI [50]: > 100 µM
- TGI [51]: > 100 µM
- TGI [52]: > 100 µM
- TGI [53]: > 100 µM
- TGI [54]: > 100 µM
- TGI [55]: > 100 µM
- TGI [56]: > 100 µM
- TGI [57]: > 100 µM
